Assay results taken from ChEMBL document CHEMBL4433201, “Progress in the development of selective heme oxygenase-1 inhibitors and their potential therapeutic application” (Eur J Med Chem, 2019).

Columns and labels:
[1] = molecular target: T1, Heme oxygenase 2 (Rattus norvegicus, UniProt P23711); test: Inhibition of HO-2 in Sprague-Dawley rat brain microsomes using NADPH as substrate preincubated for 10 mins followed by substrate addition and measured after 15 mins by GC analysis
T1 sequence (P23711 whole entry): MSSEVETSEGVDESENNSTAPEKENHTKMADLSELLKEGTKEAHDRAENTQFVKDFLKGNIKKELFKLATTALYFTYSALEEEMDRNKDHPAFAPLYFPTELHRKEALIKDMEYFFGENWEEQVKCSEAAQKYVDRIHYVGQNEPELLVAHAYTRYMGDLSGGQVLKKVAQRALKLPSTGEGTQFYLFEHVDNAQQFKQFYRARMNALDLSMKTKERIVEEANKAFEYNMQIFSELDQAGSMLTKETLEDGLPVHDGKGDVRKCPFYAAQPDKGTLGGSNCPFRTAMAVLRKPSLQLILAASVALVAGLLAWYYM

[2] = molecular target: T2, Heme oxygenase 1 (Rattus norvegicus, UniProt P06762); test: Inhibition of HO-1 in Sprague-Dawley rat spleen microsomes using NADPH as substrate preincubated for 10 mins followed by substrate addition and measured after 15 mins by GC analysis
T2 sequence (P06762 whole entry): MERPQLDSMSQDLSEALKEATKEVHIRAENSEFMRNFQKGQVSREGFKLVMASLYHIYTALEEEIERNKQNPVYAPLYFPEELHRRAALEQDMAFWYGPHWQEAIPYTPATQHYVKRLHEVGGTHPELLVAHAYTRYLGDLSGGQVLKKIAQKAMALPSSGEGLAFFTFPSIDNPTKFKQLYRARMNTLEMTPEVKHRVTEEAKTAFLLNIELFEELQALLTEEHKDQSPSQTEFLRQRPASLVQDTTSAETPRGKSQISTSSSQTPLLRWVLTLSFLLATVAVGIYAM

[3] = molecular target: T3, Heme oxygenase 2 (Homo sapiens, UniProt P30519); test: Inhibition of HO-2 (unknown origin)
T3 sequence (P30519 whole entry): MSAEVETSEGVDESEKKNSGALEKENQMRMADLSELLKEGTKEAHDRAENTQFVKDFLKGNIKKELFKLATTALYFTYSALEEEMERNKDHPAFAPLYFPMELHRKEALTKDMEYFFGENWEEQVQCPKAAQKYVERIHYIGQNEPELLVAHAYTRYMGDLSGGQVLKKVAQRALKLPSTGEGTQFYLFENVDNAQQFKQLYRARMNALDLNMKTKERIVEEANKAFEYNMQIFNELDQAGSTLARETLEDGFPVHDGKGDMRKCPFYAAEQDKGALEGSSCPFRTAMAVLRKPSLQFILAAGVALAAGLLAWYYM

[4] = Growth inhibition of […] B16 cells incubated for 72 hrs by sulforhodamine B assay; assay type: functional; details: B16, 72 h
[5] = molecular target: T2, Heme oxygenase 1; test: Inhibition of HO-1 in Sprague-Dawley rat spleen microsomes using NADPH as substrate incubated for 60 mins by spectrometry based assay
[6] = molecular target: T4, Heme oxygenase 1 (Homo sapiens, UniProt P09601); test: Inhibition of human recombinant HO-1 by spectrometry based assay
T4 sequence (P09601 whole entry): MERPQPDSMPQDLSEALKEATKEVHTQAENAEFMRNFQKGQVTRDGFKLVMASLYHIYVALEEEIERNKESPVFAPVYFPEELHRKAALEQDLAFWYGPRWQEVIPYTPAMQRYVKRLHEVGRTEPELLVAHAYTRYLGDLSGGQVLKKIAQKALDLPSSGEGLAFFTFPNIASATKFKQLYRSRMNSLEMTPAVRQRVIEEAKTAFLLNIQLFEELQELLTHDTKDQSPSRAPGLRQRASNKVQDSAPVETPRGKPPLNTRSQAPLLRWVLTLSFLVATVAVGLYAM

Brc1ccc(Cn2c(Cn3ccnc3)nc3ccccc32)cc1
IC50 [1]: 4.2 µM | IC50 [2]: 2.7 µM

Clc1ccc(Cn2c(CC3CCCCC3)nc3ccccc32)cc1
IC50 [1]: 5.4 µM | IC50 [2]: > 100 µM

O=C(Cn1ccnc1)C12CC3CC(CC(C3)C1)C2
IC50 [3]: > 100 µM

OC(Cn1ccnc1)c1cccc(Br)c1 (stereo not given)
IC50 [4]: 37 µM

Clc1ccc(Cn2c(CN3CCOCC3)nc3ccccc32)cc1
IC50 [1]: 31.9 µM | IC50 [2]: > 100 µM

Brc1ccc(OCCCCCCn2ccnc2)cc1
IC50 [5]: 10 µM

c1ccc(COc2ccc(CCn3ccnc3)cc2)cc1
IC50 [6]: 0.9 µM

Brc1ccc(CCC2(Cn3ccnc3)OCCO2)cc1
IC50 [6]: 1.9 µM | IC50 [3]: > 100 µM

COc1ccc2[nH]c(=O)c(-c3nc(-c4ccccc4)c(-c4ccccc4)[nH]3)cc2c1
IC50 [5]: 9.2 µM

O=[N+]([O-])c1ccc(C(O)Cn2ccnc2)cc1 (stereo not given)
IC50 [5]: 10 µM

Brc1ccc(Cn2c(CN3CCOCC3)nc3ccccc32)cc1
IC50 [1]: 30.1 µM | IC50 [2]: > 100 µM

FC(F)(F)c1ccc(COc2ccc(CCn3ccnc3)cc2)cc1
IC50 [6]: 54 µM

O=C(Cn1ccnc1)c1ccc(Br)cc1
IC50 [5]: 2.5 µM

c1ccc(OCCn2ccnc2)cc1
IC50 [5]: 28 µM

Brc1ccc(Cn2c(CC3CC4CCC3C4)nc3ccccc32)cc1 (stereo not given)
IC50 [1]: 5.1 µM | IC50 [2]: > 100 µM

Clc1ccc(Cn2c(CC3CCCC3)nc3ccccc32)cc1
IC50 [1]: 3.3 µM | IC50 [2]: 32.4 µM

Clc1ccc(Cn2c(CC3CC4CCC3C4)nc3ccccc32)cc1 (stereo not given)
IC50 [1]: 4.3 µM | IC50 [2]: > 100 µM

Brc1ccc(Cn2c(CC3CCCCC3)nc3ccccc32)cc1
IC50 [1]: 5.4 µM | IC50 [2]: > 100 µM

OC(Cn1ccnc1)c1ccc(-c2ccc(Br)cc2)cc1 (stereo not given)
IC50 [6]: 0.06 µM

Brc1cccc(OCCCCn2ccnc2)c1
IC50 [3]: 2.2 µM

Brc1ccc(CCCCn2ccnc2)cc1
IC50 [6]: 0.25 µM
